Data published in patent publication US12258424B2, “Polypeptides and compositions comprising the same” (priority 2020, dated 2025).
Residues, ends and D or L forms follow the SMILES beside them.

Columns and labels:
[1] = molecular target: T1, recombinant human PD-L1 ECD protein (Homo sapiens, UniProt Q9NZQ7); assay: SPR binding kinetics and affinity to immobilized human PD-L1; details: for kon: read-out: Ka
T1 construct: against the recombinant human PD-L1 ECD protein were evaluated using SPR; purchased G&P Biosciences FCL0784B
T1 sequence (Q9NZQ7 19-238 limits assumed): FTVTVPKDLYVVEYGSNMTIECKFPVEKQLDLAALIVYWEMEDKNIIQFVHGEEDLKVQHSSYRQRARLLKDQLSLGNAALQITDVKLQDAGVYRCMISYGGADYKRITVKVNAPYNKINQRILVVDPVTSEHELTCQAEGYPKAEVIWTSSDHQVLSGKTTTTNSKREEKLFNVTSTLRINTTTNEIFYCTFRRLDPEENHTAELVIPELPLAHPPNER
Method: In such aspects, the equilibrium dissociate constant KD value against recombinant human PD-L1 can be determined according to an KD to PD-L1 SPR Assay. The KD to PD-L1 SPR Assay can include the use of Surface Plasmon Resonance (SPR), such as the B14500, Biosensing Instrument, and can include the following procedures. The PD-L1 protein can be diluted to 10 μg/mL with sodium acetate buffer (pH 5.0, GE Healthcare, PA) and covalently coated onto a CM5 sensor chip (CM Dextran Sensor Chip, Biosensing Instrument) using the standard Amine Coupling Kit (GE Healthcare, PA). Approximately 6500 RU of PD-L1 protein are immobilized onto the chip. A second channel is used as a reference. HBS-EP+ buffer (GE Healthcare) can be employed at a flow rate of 60 μL/min. A series of concentrations of each peptide (15, 30, 60, 125, 250, 500, 1000, 5000 and 10,000 nM) is prepared in HBS-EP+ running buffer to obtain the equilibrium dissociation constant (KD) values of the peptides. The CM5 sensor chip can be regenerated with 10 mM NaOH for 20 s. The results can be analyzed using the software of Bi data analysis software.
Evaluation of Binding Kinetics and Affinity By Surface Plasmon Resonance (SPR). Binding affinities of the PD-L1 specific peptides for human PD-L1 protein were determined by SPR (B14500, Biosensing Instrument). PD-L1 protein was diluted to 10 μg/mL with sodium acetate buffer (pH 5.0, GE Healthcare, PA) and covalently coated onto a CM5 sensor chip (CM Dextran Sensor Chip, Biosensing Instrument) using the standard Amine Coupling Kit (GE Healthcare, PA). Approximately 6500 RU of PD-L1 protein were immobilized onto the chip. A second channel was used as a reference. HBS-EP+ buffer (GE Healthcare) was employed at a flow rate of 60 μL/min. A series of concentrations of each peptide (15, 30, 60, 125, 250, 500, 1000, 5000 and 10,000 nM) were prepared in HBS-EP+ running buffer to obtain the equilibrium dissociation constant (KD) values of the peptides. The CM5 sensor chip was regenerated with 10 mM NaOH for 20 seconds. The results were analyzed using the software of Bi data analysis software. Binding affinities of the anti-PD-L1 peptides to BSA was also assessed following the procedure for human PD-L1.

DU145 cancer cell = format: cell-based, human; details: for IC50: 2 h; for Blocking Efficiency (%): DU-145 cancer cells
Method: (§1) Ninety-six-well plates were coated with 100 ng of PD-L1 protein (G&P Biosciences, human PD-L1 ECD, cat #FCL0784B. mouse PD-L1, cat #FCL3502B) and later blocked with 2% BSA for 2 hours at room temperature. Various concentrations of peptides were loaded into the wells and incubated for 1 hour at room temperature. […] Streptavidin-HRP (R & D systems) and chromogenic substrate were added into the wells. OD450 was then recorded and referenced to OD540.
The blocking efficiency of the anti-PD-L1 peptides at 10 μM (FIG. 2c). […] The IC50 of each peptide was also determined using recombinant human PD-L1 protein and DU-145 cancer cells.

4T1 cancer cell = format: cell-based, mouse; details: for Blocking Efficiency (%): 4T1 cancer cell; for IC50: 2 h
[2] = molecular target: human PD-L1/CD80 interaction (Homo sapiens, UniProt Q9NZQ7); assay: Blockade of the CD80/PD-L1 interaction; format: binding; details: at 10 μM, FIG. 8a
Chain of human PD-L1/CD80 interaction (Q9NZQ7 19-238 limits assumed): as above

mPD-L1 = mPD-L1 (Mus musculus, UniProt Q9EP73); assay: Blockade of the mouse PD-1/PD-L1 interaction, mouse PD-L1 protein; format: binding; set-up: purchased G&P Biosciences FCL3502B (PD-L1); details: mouse PD-L1 protein
Chain of mPD-L1 (Q9EP73 19-239 limits assumed): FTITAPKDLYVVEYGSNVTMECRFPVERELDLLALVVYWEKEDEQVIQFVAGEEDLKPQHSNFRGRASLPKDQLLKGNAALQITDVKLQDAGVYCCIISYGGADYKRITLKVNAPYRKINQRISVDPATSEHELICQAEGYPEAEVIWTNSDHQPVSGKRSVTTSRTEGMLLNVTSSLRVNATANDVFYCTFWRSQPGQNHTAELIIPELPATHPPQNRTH
Method: as §1

hPD-L1 [3] = molecular target: T2, hPD-L1 (Homo sapiens, UniProt Q9NZQ7); assay: Blockade of the PD-1/PD-L1 interaction, plate coated with human PD-L1 protein; format: binding; set-up: PD-L1 protein (G&P Biosciences, human PD-L1 ECD, cat #FCL0784B); purchased G&P Biosciences FCL0784B (PD-L1); details: for Blocking Efficiency (%): human PD-L1 protein
T2 sequence (Q9NZQ7 19-238 limits assumed): as the sequence (Q9NZQ7 19-238 limits assumed) above
Method: as §1

[4] = tested on: Jurkat T cells co-cultured with DU-145 cancer cells; assay: Jurkat T cell proliferation in co-culture with DU-145 cells (CellTiter-Glo); format: cell-based, human; details: peptide 5 μM, 24 hours
Method: Proliferation and Apoptosis Assays. […] Briefly, 3×10^4 Jurkat T cells were cultured alone or co-cultured with 1.5×10^5 DU-145 cancer cells in a 24-well plate for the proliferation assay. For the apoptosis assay, 6×10^4 Jurkat T cells were cultured alone or co-cultured with 3×10^5 DU-145 cancer cells in a 6-well plate. After incubation with the anti-PD-L1 peptides (5 μM) or anti-PD-L1 antibody (1 μM) for 24 hours, Jurkat T cells were harvested from the supernatant. Proliferation of Jurkat cells was determined using the CellTiter-Glo luminescent cell viability assay (Promega, WI), and apoptosis of the cells were determined using the Dead Cell Apoptosis Kit with Annexin V Alexa Fluor® 488 and Propidium Iodide (Thermo-Fisher Scientific, Pittsburgh, PA) as we described before^21.

[5] = tested on: CT26 colorectal tumor-bearing mouse model; assay: Anti-tumor activity in CT26 tumor-bearing Balb/C mice; format: in vivo
From the text: (§2) Animal Study. The animal protocol was approved by the University of Missouri-Kansas City, Institutional Animal Care and Use Committee (IACUC). Five-week old male and female Balb/c mice were purchased from Charles Rivers Laboratories (Wilmington, Mass.) and housed in a temperature and humidity controlled room on a 12-hour light-dark cycle. Approximately 5×10^5 CT26 cells were subcutaneously injected into the right flank. The mice were randomly divided into five different groups (10 mice/group, 50% female, 50% male). The mice were intraperitoneally injected with 2 mg/kg peptide daily when the tumor size reached 50-100 mm^3. The anti-mouse PD-L1 antibody (10F.9G2, BioXcell) was administrated as a positive control at a dose of 10 mg/kg every two days. The tumor size was assessed with a caliper and calculated with the formula 0.5×length×width^2. ELISA kits of PD-L1 (Cat #DY1019-05), IFNγ (Cat #DY485-05), and IL-6 (Cat #DY406-05) were used to measure the expressions of PD-L1, IFNγ, and IL-6, respectively, in tumors as per the company's instructions (R & D Systems, Minneapolis, MN).
The anti-mouse PD-L1 antibody (BioXcell, 10F.9G2) was administered intraperitoneally every other day at 10 mg/kg. […] In general, CLP002 (SEQ ID NO:2) exerted a better tumor inhibitory effect than CLP003 (SEQ ID NO:3), which was similar to the antibody. […] In FIG. 6e the weight of the tumors harvested at day 14 is shown. The results were represented as the mean±SD (n=10). It is noteworthy that the peptides were screened against the human PD-L1 protein, which, in fact, would compromise the anti-tumor activity of the peptides in a mouse model.

[6] = tested on: IFNγ, PD-L1 and IL-6 in CT26 tumors; assay: ELISA of IFNγ, PD-L1 and IL-6 in harvested CT26 tumors; format: in vivo, mouse
From the text: as §2

[7] = tested on: CD8+ T cells in CT26 tumor tissues; assay: IHC staining of CD8+ T cells in CT26 tumor tissues; format: in vivo, mouse
Method: Immunohistochemistry (IHC) Staining. Tumor tissues were fixed in 10% formalin, embedded in paraffin, sectioned, and mounted on glass slides by Truman Medical Centers Anatomic Pathology Core (Kansas City, MO). The slides were heated in Tris buffer (pH 9.0) for 45 min to recover antigen. After deparaffinization and rehydration, the sections were stained with the anti-mouse CD8 alpha antibody (Abcam, ab209775) overnight at 4° C. The slides were incubated with a biotinylated goat anti-rabbit secondary antibody, followed by the DAB chromogen mixture. Four sections (2 male and 2 female) were imaged in each group. For each section, 3 regions were randomly selected for imaging.

[8] = tested on: CT26 tumor-bearing Balb/C mice; assay: Survival of CT26 tumor-bearing Balb/C mice; format: in vivo, mouse
From the text: as §2
In this Example, mice were intraperitoneally injected with the CLP002 (SEQ ID NO:2) and CLP003 (SEQ ID NO:3) peptides daily or the anti-mouse PD-L1 antibody every other day from day 4 to day 17 (see survival curves in FIG. 7a). Specifically, CT26 tumor-bearing Balb/C mice (n=10, 5 male and 5 female) were intraperitoneally injected with the anti-PD-L1 peptides (2 mg/Kg) daily and the anti-mouse PD-L1 antibody (10 mg/Kg) every other day from day 4 to day 17. GraphPad Prism 7 software (San Diego, Calif.) was used for statistical analysis. Comparison of two survival curves were conducted using the Gehan-Breslow-Wilcoxon test. […] By contrast, only 20% of the mice in the CLP002 (SEQ ID NO:2) group were dead by day 17.

[9] = Proteolytic stability in 50% human serum (LC-MS); format: in vitro ADME
Method: Half-life in 50% human serum. Proteolytic stability of the peptides was investigated using LC-MS. Solutions of the anti-PD-L1 peptides were incubated with 50% human serum at […], aliquots were taken at specific time points for processing and subsequent LC-MS analysis.

PD1/PD-L1 = PD1/PD-L1 (Homo sapiens, UniProt Q9NZQ7); assay: IC50 and blocking efficiency against PD1/PD-L1 (Table 5); format: binding
Chain of PD1/PD-L1 (Q9NZQ7 19-238 limits assumed): as above
Method: (§3) Blocking efficiency at 10 μM/IC50 against human and mouse PD1/PD-L1 (ELISA). […] 100 ng of recombinant human PD-L1 protein was coated in 96-well plates at 4° C. for 16 h with shaking over an orbital shaker. Unbound protein was removed by washing twice with PBS (pH 7.2-7.4), 2% BSA was added for 1.5 h at 37° C. to block the plate. Specific concentrations of the peptides were dispensed into the appropriate wells and incubated for 2 h at 37° C. […] This was followed by the addition of streptavidin-HRP and chromogenic substrate (R & D systems). The color reaction was terminated with 2N H2SO4, absorbance was recorded at OD450 and referenced to OD540.

hPD-L1 [10] = molecular target: T2, hPD-L1; assay: PD-1/PD-L1 inhibitor screening ELISA, human proteins; format: binding; set-up: purchased Acro Biosystems EP-101
Method: as §3

Row | Structure (SMILES) | kon [1] | IC50 (DU145 cancer cell) | Blocking Efficiency (%) (DU145 cancer cell) | Blocking Efficiency (%) (4T1 cancer cell) | IC50 (4T1 cancer cell) | Blocking efficiency against CD80/PD-L1 interaction [2] | Blocking Efficiency (%) (mPD-L1) | Blocking Efficiency (%) (hPD-L1 [3]) | further results
1 | CC(C)C[C@H](NC(=O)[C@@H](NC(=O)[C@@H]1CCCN1C(=O)[C@H](CC(C)C)NC(=O)[C@H](CO)NC(=O)[C@@H]1CCCN1C(=O)[C@H](CC(=O)O)NC(=O)[C@H](Cc1c[nH]cn1)NC(=O)[C@H](Cc1ccc(O)cc1)NC(=O)[C@@H](N)CC(=O)O)[C@@H](C)O)C(=O)N[C@@H](CCCNC(=N)N)C(=O)N[C@@H](CCCCN)C(=O)O [CLP004] (H-DYHDPSLPTLRK-OH; N-terminus and C-terminus assumed) | 5140 M⁻¹ s⁻¹ | 200 nM | 60% | 34% | 730 nM | ~27% | 48% | 52% | IC50 (mPD-L1): 1910 nM
2 | C[C@H](NC(=O)[C@H](CCC(N)=O)NC(=O)[C@H](CC(N)=O)NC(=O)[C@H](C)NC(=O)[C@H](Cc1c[nH]cn1)NC(=O)[C@@H]1CCCN1C(=O)[C@H](CCCNC(=N)N)NC(=O)[C@H](Cc1ccccc1)NC(=O)[C@@H]1CCCN1C(=O)[C@H](Cc1ccc(O)cc1)NC(=O)[C@@H](N)Cc1c[nH]cn1)C(=O)N[C@@H](CO)C(=O)O [CLP001] (H-HYPFRPHANQAS-OH; N-terminus and C-terminus assumed) | 5190 M⁻¹ s⁻¹ | – | 0% | 35% | 910 nM | approximately 17% | 34% | 0% | Effect on Jurkat T cell proliferation [4]: did not observe the same effect; Blocking of the human PD-1/PD-L1 interaction (in words) (hPD-L1 [3]; peptides at 10 μM, FIG. 2c): did not block
3 | CC(C)C[C@H](NC(=O)[C@H](Cc1c[nH]c2ccccc12)NC(=O)[C@H](CCCNC(=N)N)NC(=O)[C@H](Cc1c[nH]c2ccccc12)NC(=O)[C@H](CC(N)=O)NC(=O)[C@H](Cc1ccc(O)cc1)NC(=O)[C@H](CO)NC(=O)[C@H](Cc1ccccc1)NC(=O)[C@H](Cc1c[nH]cn1)NC(=O)[C@@H](N)Cc1c[nH]c2ccccc12)C(=O)N1CCC[C@H]1C(=O)N1CCC[C@H]1C(=O)O [CLP003] (H-WHFSYNWRWLPP-OH; N-terminus and C-terminus assumed) | 22600 M⁻¹ s⁻¹ | 3050 nM | 56% | 50% | 1000 nM | – | – | – | Kd [1]: 117 nM; Tumor growth ([5]; peptides 2 mg/kg i.p. daily, antibody 10 mg/kg i.p. every other day): effectively suppressed tumor growth; Tumor weights at day 14 ([5]; versus saline group): significantly smaller than the saline group; IL-6 expression in tumor tissues [6]: decreased expression of IL-6; Density of CD8+ T cells in tumor tissues [7]: significantly increased; Tumor growth in the survival study ([8]; Example 7, individual growth curves): other mice experienced a rapid tumor progression; Mice died on day 17 (in words) ([8]; n=10): only one mouse died on day 17; Survival of tumor-bearing mice ([8]; treatment from day 4 to day 17): modestly improved the survival; IC50 (hPD-L1 [3]; plate coated with human PD-L1 protein): 2220 nM
4 | C[C@@H](O)[C@H](NC(=O)[C@H](Cc1ccc(O)cc1)NC(=O)[C@H](Cc1ccc(O)cc1)NC(=O)[C@H](CO)NC(=O)[C@H](CCCNC(=N)N)NC(=O)[C@H](Cc1c[nH]cn1)NC(=O)[C@@H](N)Cc1c[nH]c2ccccc12)C(=O)N[C@@H](Cc1c[nH]c2ccccc12)C(=O)N[C@@H](CC(N)=O)C(=O)O [CLP2TR3] (H-WHRSYYTWN-OH; N-terminus and C-terminus assumed) | – | – | – | – | – | – | – | – | half-life [9]: 15 min; % Blocking efficiency at 10 μM (PD1/PD-L1): 80%; % Blocking efficiency at 10 μM (ELISA) hPD-L1 (hPD-L1 [10]): 80%
